Experimental data as given in US12421489B2, “Biological control of plant pathogenic microorganisms” (priority 2016, dated 2025).

Assays:
Assay type in all cases: in vivo
[1] = system: Pseudomonas syringae pv. actinidiae (Psa); experiment: Field trials 2015-16: foliar sprays on ‘Hayward’ vines, Blocks B and C, Maketu; conditions: mean of Blocks B and C
Source text: Grower standard treatment: Kocide Opti+1×Kasumin
Two field trial sites were established during spring 2015 with the intention of running across two consecutive seasons. The two ‘Hayward’ blocks (coded Block B and C) were located in separate orchards, near Maketu, Bay of Plenty. Block C was the same orchard as the 2014-15 trial, but a different area in the blocks was used. Vines in all blocks were pergola trained with a single vine per bay. The vines generally looked healthy at the commencement of the trial, but had suffered from significant Psa symptoms 2-3 years previously, according to the grower.
The spray treatments were applied to individual vines (eight replicates per treatment) laid out in a randomised block design. The treatments were: • 1. Nil—no Psa control products applied during the growing season • 2. Grower standard—copper-based foliar spray programme, including up to one antibiotic spray • 3. YBCA5—yeast-based foliar spray programme (2×10^7 CFU/mL)
Spray applications in the Grower standard and YBCA5 treatments were applied according to the schedule in Table 5. Common agricultural adjuvants were added to the Grower standard (0.04% Du-Wett®) and YBCA5 (0.03% Nu-Film-17@) applications.
The YBCA5 yeast was produced by liquid fermentation, sourced from three separate production facilities: PFR (Ruakura), AgResearch (Lincoln) and Callaghan Innovation (Lower Hutt). A concentrated yeast pellet after centrifugation was supplied to the laboratory at Ruakura and this was mixed with an inert carrier and extruded to form granules which were air dried overnight in a laminar flow hood. The number of colony forming units/g was calculated by dissolving 0.2 g samples into 20 mL phosphate buffered saline amended with 0.05% Tween 80 (PBSTw). This was serially diluted and 10-μL droplets of each dilution were transferred to Petri dishes with malt yeast extract agar amended with chloramphenicol. Petri dishes were incubated for 24 h at 25° C. and then 4-6° C. for a further 24 h, prior to counting the number of colonies. […]
Psa disease assessments were carried out in the ‘Hayward’ blocks just prior to flowering on 11 Nov. […] Assessments were commenced after taking one step (i.e. 1 m) from the edge of the plot and a set of 25 leaves were scored. […] This was then repeated down the other side of the vine so that four sets of 25 leaves (total=100) were scored within each plot. Similarly, 100 buds/plot were scored for the severity of bud-browning, as described above.
Data were expressed as Psa incidence (based on the proportion of leaves with Psa spotting/proportion of buds with brown sepals) and average Psa severity (mean % leaf area necrotic/mean number of brown sepals on buds). Data were log-transformed and analysed by ANOVA using Genstat (ver. 16) to determine treatment differences. […]

Monilinia fructicola = experiment: Cherry inoculation assays 1 and 3: Monilinia fruit rot of ‘Sweet Valentine’ cherries, dip treatment; conditions: Assay 3, cherries, cumulative after 16 days; Nil 88%; YBCA5 not significant (P>0.05), captan P<0.001
Experimental: (§1) Fruit-based screening assays were conducted in laboratories at the Plant and Food Research Ruakura Research Centre, Hamilton, New Zealand (PFR). PFR assays focused on dip treatment application of YBCA5 and fungicide controls.
(§2) Fruit for Monilinia fructicola and Botrytis spp. inoculation assays were carried out on sweet cherries (Prunus avium ‘Sweet Valentine’) that were picked at the harvest mature stage and sourced from the PFR Clyde Research Orchard in Central Otago on 8 Jan. 2016 for fruit based assays 1 and 2. A second harvest was carried out on 13 Jan. 2016 for fruit based assays 3 and 4.
(§3) Each cherry was then subjected to a double wash process. Wash one consisted of 10 minutes in tap water on a rotary shaker (110 rpm) followed by a five minute wash in SDW (Wash 2). […]
A Monilinia fructicola culture (isolate code MFGQ3), which had been originally isolated from an infected peach tree located in the Hamilton region during 1998, was used for the spray inoculation assays included in this section (Ruakura based assay). […] This stock suspension was then filtered using a 70 μm cell strainer (to remove mycelial fragments), the concentration determined using a haemocytometer and then adjusted, by dilution with SDW+Tw 80 (0.05%) to a final concentration of 1×10^4 conidia/mL. […]

Botrytis spp. [2] = experiment: Cherry inoculation assays 2 and 4: Botrytis spp. fruit rot of ‘Sweet Valentine’ cherries, dip treatment; conditions: Assay 4, cherries, cumulative after 16 days; nil 67%; not significantly reduced (P>0.05)
Experimental: as §1, §2, §3
A Botrytis spp. culture (isolate code 09-2), which had been originally isolated from an infected kiwifruit located in the Bay of Plenty region during the 2000s, was used for the spray inoculation assays included in this section carried out on cherries. […] This stock suspension was then filtered using a 70 μm cell strainer (70 μm mesh) to remove mycelial fragments, the concentration determined using a haemocytometer and then adjusted, by dilution with SDW+Tw 80 (0.01% v/v) to a final concentration of 1×10^5 conidia/mL. […]

Botrytis spp. [3] = experiment: Grape inoculation assay 5: Botrytis spp. rot of wounded table grape berries; conditions: Assay 5, wounded table grapes, 9 days, mean of two Botrytis spp. isolates; nil 30%; significantly reduced (P<0.001)
Experimental: Fruit assays were carried out on detached white table grape berries (‘Thompson seedless’—Assay 5), imported from California that were sourced from a local supermarket in Hamilton. Each berry was detached from the bunch with 3-4 mm of pedicel remaining and then subjected to a double wash process. Wash one consisted of 10 minutes in tap water on a rotary shaker (110 rpm) followed by a five minute wash in SDW (Wash 2). All berries were placed onto sterile black plastic grids in a sterile plastic meat tray with two sterile paper towels and were allowed to dry in a laminar flow hood. Each berry was lightly wounded with the aid of fine sandpaper, Grade P220, then dipped in the treatments for 60 seconds and again allowed to dry.
YBCA5 granules were prepared by fermenting the yeast for 3 days in a 10 L bioreactor (Labfors) using sterile liquid media (4% molasses and 1.2 g/L urea). […]
Botrytis spp. inoculum was prepared by growing each isolate of Botrytis spp. for 5-7 days on PDA (DIFCO, Fort Richard) medium and harvesting the conidia by washing the plate with SDW plus Tween 80 (0.01%) to make a stock suspension of inoculum. This stock suspension was then filtered using a cell strainer (70 μm mesh, Falcon) to remove mycelial fragments, the concentration determined using a haemocytometer and adjusted to the required concentration (2×10^4 conidia/mL) equivalent to 200 conidia in each 10 μL droplet. […]

| Compound | Severity of spotting (% leaf area) ([1]; assessed Nov. 11, 2015, Nil control 0.24, LSD 0.099) [b % leaf area] | Severity of bud browning (No. sepals) ([1]; assessed Nov. 11, 2015, Nil control 1.29, LSD 0.226) [b No. sepals] | % leaves with spotting (incidence) ([1]; assessed Nov. 11, 2015, Nil control 50, LSD 8.0) [b %] | % buds with necrosis (incidence) ([1]; assessed Nov. 11, 2015, Nil control 61, LSD 9.9) [b %] | incidence of Monilinia fruit rot (Monilinia fructicola) [%] | incidence of Botrytis spp. fruit rot (Botrytis spp. [2]) [%] | incidence of Botrytis spp. fruit rot (Botrytis spp. [3]) [%] |
| --- | --- | --- | --- | --- | --- | --- | --- |
| [Cu+2].[OH-].[OH-] [Kocide Opti, Copper Hydroxide] | 0.07 | 0.80 | 27 | 45 | – | – | – |
| O=C1C2CC=CCC2C(=O)N1SC(Cl)(Cl)Cl (stereo not shown) [captan] | – | – | – | – | 12 | 43 | 10 |
